From patent publication US12319696B2, “2,6-dimethyl-n-((pyridin-4-yl)methyl)imidazo[1,2-b]pyridazin-8-amine and 2,5-dimethyl-n-[(pyridin-4-yl)methyl]pyrazolo[1,5-a]pyrimidin-7-amine derivatives for treating viral infections” (CUROVIR AB, priority 2018, dated 2025)

Tests used:
enterovirus strain 6 = assay: microbe, parasite or virus in culture; format: cell-based; settings: inhibition of viral CPE; for inhibition at 0.01 µM: 10 nM, read-out: Inh. at 10 nM, EV6; for inhibition at 0.1 µM: 100 nM, read-out: Inh. at 100 nM, EV6
enterovirus strain 30 = assay: Antiviral CPE inhibition assay in mammalian cell culture, EV30; format: cell-based; settings: inhibition of viral CPE; for inhibition at 0.01 µM: 10 nM, read-out: Inh. at 10 nM, EV30; for inhibition at 0.1 µM: 100 nM, read-out: Inh. at 100 nM, EV30
enterovirus D68 = assay: Antiviral CPE inhibition assay in mammalian cell culture, EV-D68; format: cell-based; settings: Enterovirus D, EVD68, inhibition of viral CPE; for inhibition at 0.01 µM: 10 nM, read-out: Inh. at 10 nM, EV-D68; for inhibition at 0.1 µM: 100 nM, read-out: Inh. at 100 nM, EV-D68
enterovirus strain 71 = assay: Antiviral CPE inhibition assay in mammalian cell culture, EV71; format: cell-based; settings: inhibition of viral CPE; for inhibition at 0.01 µM: 10 nM, read-out: Inh. at 10 nM, EV71; for inhibition at 0.1 µM: 100 nM, read-out: Inh. at 100 nM, EV71
[1] = system: coxsackie B virus strain 1; assay: Antiviral CPE inhibition assay in mammalian cell culture, Cox B1; format: cell-based; settings: for inhibition at 0.01 µM: read-out: Inh. at 10 nM, Cox B1; for inhibition at 0.1 µM: read-out: Inh. at 100 nM, Cox B1
[2] = system: coxsackie B virus strain 2; assay: Antiviral CPE inhibition assay in mammalian cell culture, Cox B2; format: cell-based; settings: for inhibition at 0.01 µM: read-out: Inh. at 10 nM, Cox B2; for inhibition at 0.1 µM: read-out: Inh. at 100 nM, Cox B2
[3] = system: coxsackie B virus strain 3; assay: Antiviral CPE inhibition assay in mammalian cell culture, Cox B3; format: cell-based; settings: for inhibition at 0.01 µM: read-out: Inh. at 10 nM, Cox B3; for inhibition at 0.1 µM: read-out: Inh. at 100 nM, Cox B3
[4] = system: coxsackie B virus strain 5; assay: Antiviral CPE inhibition assay in mammalian cell culture, Cox B5; format: cell-based; settings: for inhibition at 0.01 µM: read-out: Inh. at 10 nM, Cox B5; for inhibition at 0.1 µM: read-out: Inh. at 100 nM, Cox B5
polio virus strain 1 = assay: organism not typed; format: cell-based; settings: for inhibition at 0.01 µM: read-out: Inh. at 10 nM, Polio 1; for inhibition at 0.1 µM: read-out: Inh. at 100 nM, Polio 1
CYP3A4 = biological target: T1, CYP3A4 (Homo sapiens, UniProt P08684); assay: In vitro CYP 3A4 enzyme inhibition in human liver microsomes by probe substrate method; format: in vitro ADME; settings: human liver microsomes 0.5 mg/mL; probe substrate Midazolam 5 μM
T1 construct: from tissue; host or cells: human liver microsomes
Protocol: In Vitro CYP 3A4 Enzyme Inhibition Study in Human Liver Microsomes by Probe Substrate Method
In vitro CYP3A4 enzyme inhibition assay was performed using Human liver microsomes at 0.5 mg/mL concentration. Ketoconazole was used as reference inhibitor and Midazolam was used as selective probe substrate for CYP 3A4 enzyme. Serial dilution of test/control items was prepared in potassium phosphate buffer (50 mM, pH 7.40) to obtain eight concentrations each in a 1:4 dilution pattern. The percentage of acetonitrile/DMSO was maintained at 2.5%/0.25% in 2.5× serially diluted control/test item solutions respectively. The final percentage of acetonitrile/DMSO was 1%/0.1% respectively. Intermediate solutions such as 10× working solution (5 mg/mL) of Human liver microsomal solution, 10× concentration of reference probe substrates in buffer, 5× concentrations of Cofactors (5.0 mM NADP+, 25.0 mM G-6-P, 3.0 IU/mL G-6-PDH and 10.0 mM MgCl2) were prepared in potassium phosphate buffer. The final concentration of liver microsomes in the reaction mixture was 0.5 mg/mL, cofactors was 1.0 mM NADP+, 5.0 mM G-6-P, 0.6 IU/mL G-6-PDH and 2.0 mM MgCl2. Midazolam was tested at 5 μM test concentration. 40 μL of 2.5× serially diluted test/control item solutions and 10 μL of […] liver microsomal solution were added to 96 well plate and incubated for 10 min at 37° C. with shaking condition (400 rpm) using Thermomixer. After pre incubation, 20 μL of potassium phosphate buffer, 10 μL of respective probe substrate working solution and 20 μL of cofactor mix was added.

in vivo = assay: in vivo; design: species or system Sprague Dawley rats; settings: male, Sprague Dawley, rat, po, 10 mg/kg
Protocol: 10 mg of the compound was weighed and transferred to graduated tube. Then 500 μL of DMA (5% v/v) was added, vortex mixed thoroughly and sonicated till test item was completely dissolved. Then 5 mL of PEG 200 (50% v/v) were added, and vortex mixed thoroughly. Thereafter, Sterile Water for Injection (SWFI) was added in small increments and vortex mixed thoroughly. Finally, the volume was made up to 10 mL with SWFI (45% v/v) to obtain a clear solution with final formulation strength of 1 mg/mL. […] Formulation was freshly prepared before the administration to animals. Adult healthy male Sprague Dawley rats aged 8-10 weeks were used for experimentation after a minimum 3 days of acclimation. Fasted animals were administered with test compound in recommended vehicle (5% DMA+50% PEG 200+45% SWFI) by oral route at a dose of 10 mg/kg body weight and at dose volume of 10 mL/kg body weight. Under mild isoflurane anesthesia, blood specimens were collected into pre-labeled tubes containing anticoagulant (K2EDTA—2 mg/mL blood) at different time points post dose.

[5] = Metabolic stability in human liver microsomes; format: in vitro ADME; settings: 5 μM test item, 0.25 mg/mL microsomal protein
Protocol: (§1) Metabolic stability assay was carried out using Human/Rat liver microsomes. […] Test item/Control items were incubated with Human/Rat liver microsomes with cofactors and without cofactors. The reaction mixture (100 μL) was removed at specified time period and the reaction was stopped by addition of stop solution. The samples were extracted in presence of internal standard and were analyzed using LC-MS/MS. The percent of the test/Control item remaining after specified incubation period was calculated with respect to the peak area ratio at time 0 min. […] The reaction mixture was incubated further at 37° C. for specified incubation time points (With Cofactors: 0, 15, 30, 60 and 120 min; Without Cofactors: 0 and 120 min). 100 μL incubation samples of test items and Control items at specified incubation time points were transferred to respective tubes for sample extraction. Test and Control item specimens were extracted by Protein precipitation method. A 100 μL incubation sample at each time point was added to tubes containing 200 μL of ice-cold acetonitrile and 50 μL Haloperidol solution (0.5 μg/mL). Then the tubes were vortex mixed thoroughly and centrifuged at 10000 rpm for 10 minutes at 4° C. A clear supernatant of 200 μL of samples were submitted for LC-MS/MS analysis.

[6] = Metabolic stability in rat liver microsomes; format: in vitro ADME; settings: 5 μM test item, 0.25 mg/mL microsomal protein
Protocol: as §1

[7] = Human plasma protein binding (Rapid Equilibrium Dialysis); format: in vitro ADME; settings: pH 7.4, RED device, 37° C.
Protocol: (§2) Plasma protein binding study was performed using a Rapid Equilibrium Dialysis (RED) device containing dialysis membrane with a molecular weight cut-off of 8,000 Daltons. Each dialysis insert contained two chambers. The red chamber was for the plasma while the white chamber was for the buffer. Test items and Control items (Warfarin and Propranolol) were prepared at a required test concentration of 10 μM in Human/Rat plasma (pH adjusted to 7.40) using 10 mM DMSO stocks (final DMSO concentration was 0.1%). 300 μL of plasma sample was added into the sample chamber. 500 μL of buffer was added into the buffer chamber. After sealing the RED device with an adhesive film, incubation was done at 37° C. with shaking at 300 rpm for 4 h. Following incubation, an aliquot of 50 μL was removed from each well (plasma and buffer side) and diluted with equal volume of opposite matrix to nullify the matrix effect and subjected for sample extraction.
(§3) All samples were extracted by Protein Precipitation method by adding 200 μL of ice cold Acetonitrile and 50 μL of internal standard (Haloperidol at 0.1 μg/mL) solution. The tubes were vortex mixed thoroughly and centrifuged at 10000 rpm, 4° C. for 10 minutes. A clear supernatant of 200 μL of samples were submitted for LC-MS/MS analysis.

[8] = Rat plasma protein binding (Rapid Equilibrium Dialysis); format: in vitro ADME; settings: pH 7.4, RED device, 37° C.
Protocol: as §2, §3

T1 sequence (P08684 whole entry): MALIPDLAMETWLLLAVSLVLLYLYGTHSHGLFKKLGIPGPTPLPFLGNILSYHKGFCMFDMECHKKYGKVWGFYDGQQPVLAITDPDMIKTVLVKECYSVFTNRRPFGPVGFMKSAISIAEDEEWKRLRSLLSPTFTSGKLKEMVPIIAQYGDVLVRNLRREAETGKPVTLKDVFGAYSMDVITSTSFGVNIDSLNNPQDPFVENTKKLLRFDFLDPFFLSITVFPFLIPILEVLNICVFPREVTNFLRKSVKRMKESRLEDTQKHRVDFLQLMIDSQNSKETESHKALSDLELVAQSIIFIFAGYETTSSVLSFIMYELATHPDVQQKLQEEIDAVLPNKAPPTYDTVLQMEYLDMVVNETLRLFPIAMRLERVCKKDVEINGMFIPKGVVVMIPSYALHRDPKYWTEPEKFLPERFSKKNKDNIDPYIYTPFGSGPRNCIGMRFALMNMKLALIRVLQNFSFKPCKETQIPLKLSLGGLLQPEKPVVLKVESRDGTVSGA

Structure (SMILES) | inhibition at 0.01 µM (enterovirus strain 6) | inhibition at 0.1 µM (enterovirus strain 6) | inhibition at 0.01 µM (enterovirus strain 30) | inhibition at 0.1 µM (enterovirus strain 30) | inhibition at 0.01 µM (enterovirus D68) | inhibition at 0.1 µM (enterovirus D68) | inhibition at 0.01 µM (enterovirus strain 71) | inhibition at 0.1 µM (enterovirus strain 71) | inhibition at 0.01 µM [1] | inhibition at 0.1 µM [1] | inhibition at 0.01 µM [2] | inhibition at 0.1 µM [2] | inhibition at 0.01 µM [3] | inhibition at 0.1 µM [3] | inhibition at 0.01 µM [4] | inhibition at 0.1 µM [4] | inhibition at 0.01 µM (polio virus strain 1) | inhibition at 0.1 µM (polio virus strain 1) | IC50 (CYP3A4) | also measured
COc1ccc(-c2c(C)nn3c(NCc4ccncc4)cc(C)nc23)cc1OC [X, 3-(3,4-dimethoxyphenyl)-2,5-dimethyl-N-(pyridin-4-ylmethyl)pyrazolo[1,5-a]pyrimidin-7-amine, reference compound] | 100% | 100% | 100% | 100% | 86% | 86% | 82% | 82% | 100% | 100% | 100% | 100% | 100% | 100% | 100% | 100% | 100% | 100% | 970 nM | –
Cc1cc(CNc2cc(C)nc3c(-c4ccc5c(c4)c(C)nn5C)c(C)nn23)ccn1 [Ex. 4, 3-(1,3-dimethyl-1H-indazol-5-yl)-2,5-dimethyl-N-[(2-methylpyridin-4-yl)methyl]pyrazolo[1,5-a]pyrimidin-7-amine] | 100% | 100% | 100% | 100% | 81% | 70% | 76% | 79% | 100% | 100% | 100% | 100% | 100% | 100% | 74% | 100% | 100% | 100% | > 25000 nM | AUC(0-inf) (in vivo): 27400 ± 10100 ng·h/mL; AUC(0-t) (in vivo): 25200 ± 10000 ng·h/mL; AUCextrap (in vivo): 8.5 ± 5.2%; Cmax (in vivo): 2500 ± 900 ng/mL; MRT last (in vivo): 6.7 ± 0.6 h; Tmax (in vivo): 1.3 ± 0.6 h; half-life (in vivo): 6.8 ± 1.5 h; % remaining after incubation for 60 min, Human microsomes [5]: 90.0%; % remaining after incubation for 60 min, Rat microsomes [6]: 84.0%; fraction unbound at 4 h, 10 μM [7]: 0.015; fraction unbound at 4 h, 10 μM [8]: 0.017
